Assay results published in PMC12152945, “Computational Design of Lysine Targeting Covalent Binders Using Rosetta” (Journal of Chemical Information and Modeling, 2025).

Assays:
MKK7 = target: T1, MKK7 (Homo sapiens, UniProt O14733); experiment: radiometric […] kinase assay ([…]PanQinase); type: biochemical; details: 3 μM ATP, 75.6 nM MKK7, JNK1 K55R K56R substrate; 3 mM MgCl2, 3 mM MnCl2, pH 7.5, 30 °C; 30 min preincubation; reversible covalent (imine, Lys221)
T1 construct: gene MAP2K7; GST or His-tagged kinase from Reaction Biology (33PanQinase assay)
T1 sequence (O14733 2-419): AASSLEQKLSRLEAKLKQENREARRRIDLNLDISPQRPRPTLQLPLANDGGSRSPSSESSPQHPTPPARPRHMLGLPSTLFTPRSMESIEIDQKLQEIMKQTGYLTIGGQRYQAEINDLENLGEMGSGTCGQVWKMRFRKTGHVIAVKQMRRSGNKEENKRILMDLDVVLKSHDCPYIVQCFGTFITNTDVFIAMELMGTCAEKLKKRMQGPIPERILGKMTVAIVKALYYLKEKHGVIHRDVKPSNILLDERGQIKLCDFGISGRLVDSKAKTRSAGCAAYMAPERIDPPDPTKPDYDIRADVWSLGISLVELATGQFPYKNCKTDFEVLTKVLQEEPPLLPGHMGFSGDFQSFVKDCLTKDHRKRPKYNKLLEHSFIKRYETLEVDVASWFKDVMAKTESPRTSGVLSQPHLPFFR

MKK7 kinase domain = target: T2, MKK7 kinase domain (Homo sapiens, UniProt O14733); experiment: intact protein LC/MS; type: binding; details: covalent, reversible imine trapped with 5 mM NaBH4; 2 μM protein, HEPES pH 7.5, overnight 4 °C
T2 construct: gene MAP2K7; His-tagged kinase domain for intact-protein LC/MS
T2 sequence (O14733 117-419 limits assumed): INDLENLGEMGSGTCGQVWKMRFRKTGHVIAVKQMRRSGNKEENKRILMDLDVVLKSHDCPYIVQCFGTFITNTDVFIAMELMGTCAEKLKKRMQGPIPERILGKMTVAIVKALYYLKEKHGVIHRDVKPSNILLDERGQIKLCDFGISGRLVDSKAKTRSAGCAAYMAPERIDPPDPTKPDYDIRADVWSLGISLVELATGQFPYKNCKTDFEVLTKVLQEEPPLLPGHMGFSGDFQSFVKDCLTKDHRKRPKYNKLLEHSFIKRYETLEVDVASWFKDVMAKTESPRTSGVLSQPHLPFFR

IC50 (MKK7): 738 nM
Compound: O=Cc1ccc(-c2n[nH]c3ccccc23)cc1O [compound 1]
intact protein LC/MS (MKK7 kinase domain): Significant labeling was detected only after the reduction of the complex
